This note sets out measurements from patent US20240317801A1, “PEPTIDOMIMETIC MATRIPTASE 2 INHIBITORS AND USES THEREOF” (Disc Medicine, Inc., priority 2020, published 2024).

Some results are limits rather than exact numbers.

The target of this assay is T1, Human Recombinant Matriptase 2 (Homo sapiens, UniProt Q8IU80).
T1 construct: purchased Enzo Life Sciences ALX-201-752-1
T1 sequence (Q8IU80 1-811): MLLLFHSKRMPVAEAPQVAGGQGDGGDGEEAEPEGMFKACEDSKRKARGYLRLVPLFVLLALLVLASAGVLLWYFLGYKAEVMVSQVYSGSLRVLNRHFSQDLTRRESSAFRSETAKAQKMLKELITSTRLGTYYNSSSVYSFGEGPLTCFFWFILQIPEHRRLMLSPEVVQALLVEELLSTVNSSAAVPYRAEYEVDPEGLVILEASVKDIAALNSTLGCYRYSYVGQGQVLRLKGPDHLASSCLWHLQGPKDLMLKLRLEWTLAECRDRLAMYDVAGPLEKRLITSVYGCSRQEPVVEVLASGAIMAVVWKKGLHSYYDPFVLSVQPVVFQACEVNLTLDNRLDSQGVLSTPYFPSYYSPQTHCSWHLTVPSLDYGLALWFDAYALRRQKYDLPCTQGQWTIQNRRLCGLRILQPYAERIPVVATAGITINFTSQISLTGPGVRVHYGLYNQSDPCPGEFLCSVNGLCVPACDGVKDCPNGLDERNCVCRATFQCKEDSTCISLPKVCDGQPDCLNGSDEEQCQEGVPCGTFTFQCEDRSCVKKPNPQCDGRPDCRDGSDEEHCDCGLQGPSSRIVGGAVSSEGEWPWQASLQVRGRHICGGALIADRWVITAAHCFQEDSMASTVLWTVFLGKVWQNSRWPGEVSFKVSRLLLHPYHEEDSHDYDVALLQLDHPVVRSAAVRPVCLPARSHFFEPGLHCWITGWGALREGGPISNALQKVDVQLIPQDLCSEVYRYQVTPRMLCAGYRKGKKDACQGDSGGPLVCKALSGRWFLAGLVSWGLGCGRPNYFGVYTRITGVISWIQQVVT
The assay can be described thus: Matriptase 2 fluorescence-based inhibition assay (Boc-Gln-Ala-Arg-AMC substrate). In kind it is biochemical. Conditions: Ki derived from measured IC50 using Cheng-Prusoff equation; 30 min preincubation, 100 μM substrate, 25° C., pH 7.5; read-out: Mat-2 Ki. The method, then:
Test compounds were evaluated for their potential to inhibit Human Recombinant Matriptase 2 (in-house and commercial protein from Enzo Life Sciences—cat log—ALX-201-752-1) using fluorescence-based assay. The concentration of Recombinant Matriptase 2 and the substrate used in the assay were: 7 nM (commercial) and 15 nM (In-house Matriptase 2) and 100 μM (Boc-Gln-Ala-Arg-7-amido-4-methyl coumarin hydrobromide—Cat log: B4153-Sigma and I-1550 from Bachem) respectively. The assay buffer used comprised 50 mM TRIS pH 7.5, 150 mM NaCl, 0.01% gelatin (G1393 Sigma). The assay was performed by using 384 well black flat bottom plate from Grenier (Cat log: 781076) at 25° C. The enzyme and the test compound were preincubated for 30 mins, and the plate was read at wavelength Ex: 360/Em:480 nm60 mins after substrate addition. The final assay volume of was 20 μl. Stock solution of compounds were initially prepared in DMSO, which were appropriately diluted for screening to determine IC50 determination (final DMSO conc in the assay was 1%). All the measurements were carried out using the Spectramax M5, Molecular devices. The test compounds were screened at 1 and 10 μM concentrations and IC50 was determined for the interested compounds.
Ki is the binding affinity of an inhibitor. Mat-2 Ki as described herein is the binding affinity of an inhibitor such as a compound as described and provided herein to Mat-2. Mat-2 Ki values are derived from the measured IC50. To determine IC50 values, dose-response curves were generated by plotting percentage inhibition as a function of inhibitor concentration and the data was fitted to a sigmoidal non-linear regression equation (variable slope) using Graph Pad Prism software V7. Mat-2 Ki values as described herein were derived from the IC50 using the Cheng-Prusoff equation, which is understood and appreciated by one the skill in the art. The Mat-2 Ki values of tested compounds as described herein are shown in Table A. Accordingly, the compounds can be used to inhibit matriptase 2 and treat diseases and conditions associated with matriptase 2, such as those described herein.

In the case of `C[C@@H](O)[C@H](NC(=O)[C@H](CCc1ccccc1)NC(=O)CCc1ccccc1)C(=O)N[C@@H](CC1CCN(C(=N)N)CC1)C(=O)C(=O)NC1CC1` [(3S)-4-(1-carbamimidoylpiperidin-4-yl)-N-cyclopropyl-2-oxidanylidene-3-[[(2S,3R)-3-oxidanyl-2-[[(2S)-4-phenyl-2-(3-phenylpropanoylamino)butanoyl]amino]butanoyl]amino]butanamide], the Ki was 100 to 1000 nM.

As to `CC(C)(C)NC(=O)C(=O)[C@H](CCCNC(=N)N)NC(=O)C1COCCN1C(=O)[C@H](Cc1cscn1)NC(=O)OCc1ccccc1` (stereo partly drawn), the inhibition constant (Ki) is not above 100 nM. For the compound `C[C@@H](O)[C@H](NC(=O)C(CCc1ccccc1)NC(=O)OCc1ccccc1)C(=O)NC(CCc1ccc(N)nc1)C(=O)C(=O)NC(C)(C)C` (stereo partly drawn), the inhibitory constant (Ki) lay within 100 to 1000 nM.

For `C[C@@H](O)[C@H](NC(=O)[C@H](CCc1ccccc1)NC(=O)CCc1ccccc1)C(=O)NC(CCCNC(=N)N)C(=O)C(=O)NCc1cccnc1` (stereo partly drawn) [6-guanidino-3-((2S,3R)-3-hydroxy-2-((S)-4-phenyl-2-(3-phenylpropanamido)butanamido)butanamido)-2-oxo-N-(pyridin-3-ylmethyl)hexanamide], the inhibition constant (Ki) is not above 100 nM.

In the case of `C[C@H](O)[C@H](NC(=O)[C@H](CCc1ccccc1)NC(=O)CCc1ccccc1)C(=O)NC(CCCNC(=N)N)C(=O)C(=O)NC(C)(C)C` (stereo partly drawn), the Ki was not above 100 nM.

`CO[C@H](C)[C@H](NC(=O)C(Cc1cscn1)NC(=O)OCc1ccccc1)C(=O)NC(Cc1ccnc(N)c1)C(=O)C(=O)NC(C)(C)C` (stereo partly drawn): the Ki was not above 100 nM.

The term Ki denotes a dissociation constant, usually derived from enzyme kinetics or from competition with a known ligand.
